According to US20230218563A1, “METHODS FOR TREATING OR PREVENTING CHRONIC KIDNEY DISEASE” (Arthrosi Therapeutics, Inc., priority 2020, published 2023):
“Also recorded” adds a separate entry of the source. Like-named read-outs stand apart in the source and are kept apart here.

Key:
[1] = molecular target: T1, human URAT1 uptake transporter (Homo sapiens, UniProt Q96S37); experiment: Inhibition of URAT1 mediated uric acid uptake in MDCKII cells stably expressing human URAT1; type: cell-based
T1 construct: expressed in transfected cells
T1 sequence (Q96S37 1-553): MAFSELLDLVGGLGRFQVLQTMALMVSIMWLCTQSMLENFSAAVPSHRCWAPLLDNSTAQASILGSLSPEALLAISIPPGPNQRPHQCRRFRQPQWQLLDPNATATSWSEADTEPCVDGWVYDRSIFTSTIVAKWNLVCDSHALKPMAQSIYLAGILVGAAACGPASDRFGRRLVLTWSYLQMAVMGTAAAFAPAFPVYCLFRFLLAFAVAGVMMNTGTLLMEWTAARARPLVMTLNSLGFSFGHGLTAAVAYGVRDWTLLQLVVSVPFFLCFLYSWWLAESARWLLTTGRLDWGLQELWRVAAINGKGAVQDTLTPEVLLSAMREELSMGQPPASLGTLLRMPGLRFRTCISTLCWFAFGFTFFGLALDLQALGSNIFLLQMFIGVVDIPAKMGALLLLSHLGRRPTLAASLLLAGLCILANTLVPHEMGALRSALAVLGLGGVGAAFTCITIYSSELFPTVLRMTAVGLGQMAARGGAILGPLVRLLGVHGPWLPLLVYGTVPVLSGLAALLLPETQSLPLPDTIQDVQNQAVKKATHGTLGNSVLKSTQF
Protocol: Uptake experiments were performed using MDCKII cells stably expressing the human URAT1 uptake transporter. Cells were cultured at 37±1° C. in an atmosphere of 95:5 air:CO2 and were plated onto standard 96-well tissue culture plates at the cell number described in Table 1.
Radiolabeled probe substrate transport was determined by measuring an aliquot (35 μL) from each well for liquid scintillation counting.

[2] = tested on: urine albumin-to-creatinine ratio (UACR); experiment: Renal function safety pharmacology study in rats, single oral dose (urine albumin, creatinine, UACR); type: in vivo, Sprague Dawley Rats
Protocol: Cageside and detailed clinical observations, body weights, water consumption, blood clinical chemistry, urine chemistry, and urinalysis were performed. Osmolality, osmolality gap, urine volume, water intake rate, fluid balance, urinary excretion, renal creatinine clearance, renal clearance, free water clearance, and fractional electrolyte clearance were calculated and evaluated. All animals were euthanized on Day 2 after scheduled observations. Blood samples for clinical chemistry analysis were collected from all the animals at 24 hours post dose prior to each scheduled euthanasia. Urine samples for clinical chemistry and urinalysis were collected from all the animals at pre-dose (˜24 hours) and 0-6 hours and 6-24 hours post-dose.

[3] = In vitro metabolism in human liver microsomes; type: in vitro ADME
Protocol: After pre-warming the mixture at 37° C. for 5 minutes, the reaction was initiated by the addition of 1 mM of NADPH and incubated for 60 minutes at 37° C. in a shaking water bath. The reaction was terminated by the addition of 0.5 mL ice-cold acetonitrile. Time 0 incubation was also performed by adding acetonitrile before the addition of microsomes to the incubation mixture as a reference sample for each species. Following vortex and centrifugation at 15,000 g for 3 minutes at room temperature, resulting supernatant was concentrated under nitrogen flow at 33° C., until approximately 0.5 mL of sample remained. The extract was then transferred to a 1.5-mL centrifuge vial for centrifugation at 15,000 g for 3 minutes. Finally, aliquots of the supernatant were transferred to HPLC vials for HPLC-MS analyses.
MS Analysis: Mass spectral analyses were performed on an Agilent single quadruple mass spectrometer equipped with an Agilent 1100 HPLC system. The mass spectrometer was fitted with an electrospray ionization (ESI) source and operated in a negative scan mode between 400 and 500 amu: […]

[4] = Phase 1 multiple ascending dose study, plasma pharmacokinetics in healthy adult males; type: in vivo; conditions: male, human, oral, fasted
Excerpt: An additional 6 subjects received placebo.
Accumulation were approximately 1.3 to 1.4 fold for C. and 1.4 to 1.5 fold for AUC0.24 (Table 12 and FIG. 8).

[5] = female rats, 5 mg/kg single oral, urine 0-6 h post dose
[6] = female rats, 5 mg/kg single oral, urine 6-24 h post dose
[7] = female rats, 15 mg/kg single oral, urine 0-6 h post dose
[8] = female rats, 15 mg/kg single oral, urine 6-24 h post dose
[9] = female rats, 50 mg/kg single oral, urine 0-6 h post dose
[10] = female rats, 50 mg/kg single oral, urine 6-24 h post dose
[11] = male rats, 10 mg/kg single oral, urine 0-6 h post dose
[12] = male rats, 10 mg/kg single oral, urine 6-24 h post dose
[13] = male rats, 30 mg/kg single oral, urine 0-6 h post dose
[14] = male rats, 30 mg/kg single oral, urine 6-24 h post dose
[15] = male rats, 100 mg/kg single oral, urine 0-6 h post dose
[16] = male rats, 100 mg/kg single oral, urine 6-24 h post dose

[2H]c1c([2H])c([2H])c2c(C(=O)c3cc(Br)c(O)c(Br)c3)c(C(C)O)oc2c1[2H] (racemic) [Compound 1, (3,5-dibromo-4-hydroxyphenyl)(2-(1-hydroxyethyl)benzofuran-3-yl-4,5,6,7-d4)methanone]
in vitro URAT1 potency compared with benzbromarone [1]: better in vitro URAT1 potency than benzbromarone
% UACR change vs Ctrl [2, 5]: 140%
% UACR change vs baseline [2, 5]: 73%
UACR [2, 5]: 102.7 mg/g
UALB [2, 5]: 33.71 mg/L
UCRE [2, 5]: 0.328 g/L
% UACR change vs Ctrl [2, 6]: 19%
% UACR change vs baseline [2, 6]: 44%
UACR [2, 6]: 40.3 mg/g
UALB [2, 6]: 24.2 mg/L
UCRE [2, 6]: 0.600 g/L
% UACR change vs Ctrl [2, 7]: −53%
% UACR change vs baseline [2, 7]: −6%
UACR [2, 7]: 17.5 mg/g
UALB [2, 7]: 5.22 mg/L
UCRE [2, 7]: 0.298 g/L
% UACR change vs Ctrl [2, 8]: −41%
% UACR change vs baseline [2, 8]: 9%
UACR [2, 8]: 20.1 mg/g
UALB [2, 8]: 11.93 mg/L
UCRE [2, 8]: 0.593 g/L
% UACR change vs Ctrl [2, 9]: −38%
% UACR change vs baseline [2, 9]: −23%
UACR [2, 9]: 23.4 mg/g
UALB [2, 9]: 9.58 mg/L
UCRE [2, 9]: 0.409 g/L
% UACR change vs Ctrl [2, 10]: −21%
% UACR change vs baseline [2, 10]: −7%
UACR [2, 10]: 26.8 mg/g
UALB [2, 10]: 21.15 mg/L
UCRE [2, 10]: 0.790 g/L
% UACR change vs Ctrl [2, 11]: −62%
% UACR change vs baseline [2, 11]: −62%
UACR [2, 11]: 14.2 mg/g
UALB [2, 11]: 6.22 mg/L
UCRE [2, 11]: 0.438 g/L
% UACR change vs Ctrl [2, 12]: −32%
% UACR change vs baseline [2, 12]: 23%
UACR [2, 12]: 28.3 mg/g
UALB [2, 12]: 14.79 mg/L
UCRE [2, 12]: 0.523 g/L
% UACR change vs Ctrl [2, 13]: −59%
% UACR change vs baseline [2, 13]: −46%
UACR [2, 13]: 15.5 mg/g
UALB [2, 13]: 8.73 mg/L
UCRE [2, 13]: 0.563 g/L
% UACR change vs Ctrl [2, 14]: −28%
% UACR change vs baseline [2, 14]: 31%
UACR [2, 14]: 29.6 mg/g
UALB [2, 14]: 12.38 mg/L
UCRE [2, 14]: 0.418 g/L
% UACR change vs Ctrl [2, 15]: −63%
% UACR change vs baseline [2, 15]: −38%
UACR [2, 15]: 13.9 mg/g
UALB [2, 15]: 9.25 mg/L
UCRE [2, 15]: 0.666 g/L
% UACR change vs Ctrl [2, 16]: −32%
% UACR change vs baseline [2, 16]: 46%
UACR [2, 16]: 28.0 mg/g
UALB [2, 16]: 15.18 mg/L
UCRE [2, 16]: 0.542 g/L
stability in human microsomes ([3]; 60 minutes incubation): stable; also recorded: more stable than benzbromarone
Parent, % MS response (parent left) ([3]; human liver microsomes 0.5 mg/mL, NADPH, 60 minutes, 37° C.): 82.5%
Cmax ([4]; 25 mg, 25 mg once daily, Day 1): 1760 ng/mL
AUC(0-t) ([4]; 25 mg, 25 mg once daily, Day 1, read-out: AUC0-24): 21200 ng·h/mL
Tmax ([4]; 25 mg, 25 mg once daily, Day 1, read-out: Tmax (median)): 3.5 h
Cmax ([4]; 25 mg, 25 mg once daily, Day 10): 2480 ng/mL
AUC(0-t) ([4]; 25 mg, 25 mg once daily, Day 10, read-out: AUC0-24): 30800 ng·h/mL
Tmax ([4]; 25 mg, 25 mg once daily, Day 10, read-out: Tmax (median)): 2.25 h
Cmax ([4]; 50 mg, 50 mg once daily, Day 1): 3550 ng/mL
AUC(0-t) ([4]; 50 mg, 50 mg once daily, Day 1, read-out: AUC0-24): 39600 ng·h/mL
Tmax ([4]; 50 mg, 50 mg once daily, Day 1, read-out: Tmax (median)): 2 h
Cmax ([4]; 50 mg, 50 mg once daily, Day 10): 4590 ng/mL
AUC(0-t) ([4]; 50 mg, 50 mg once daily, Day 10, read-out: AUC0-24): 58200 ng·h/mL
Tmax ([4]; 50 mg, 50 mg once daily, Day 10, read-out: Tmax (median)): 2.5 h
Cmax ([4]; 75 mg, 75 mg once daily, Day 1): 5200 ng/mL
AUC(0-t) ([4]; 75 mg, 75 mg once daily, Day 1, read-out: AUC0-24): 55600 ng·h/mL
Tmax ([4]; 75 mg, 75 mg once daily, Day 1, read-out: Tmax (median)): 1.75 h
Cmax ([4]; 75 mg, 75 mg once daily, Day 10): 6770 ng/mL
AUC(0-t) ([4]; 75 mg, 75 mg once daily, Day 10, read-out: AUC0-24): 84700 ng·h/mL
Tmax ([4]; 75 mg, 75 mg once daily, Day 10, read-out: Tmax (median)): 1.5 h
